# Source: patent US20240150303A1, “DIAMINOTRIAZINE COMPOUNDS” (BASF SE, priority 2021, published 2024)
# Where “and” joins values, the source holds several entries; their conditions need not be identical. Identical values can stand only once.
# Experiments:
# Assay in all cases: greenhouse pre-emergence herbicidal test
# Assay type in all cases: in vivo
# [1] = test system: Abutilon theophrasti
# From the text: The culture containers used were plastic flowerpots containing loamy sand with approximately 3.0% of humus as the substrate. The seeds of the test plants were sown separately for each species.
# For the pre-emergence treatment, the active ingredients, which had been suspended or emulsified in water, were applied directly after sowing by means of finely distributing nozzles.
# The containers were irrigated gently to promote germination and growth and subsequently covered with transparent plastic hoods until the plants had rooted. This cover caused uniform germination of the test plants, unless this had been impaired by the active ingredients.
# Depending on the species, the plants were kept at 10-25° C. or 20-35° C., respectively.
# The test period extended over 2 to 4 weeks. During this time, the plants were tended, and their response to the individual treatments was evaluated.
# Evaluation was carried out using a scale from 0 to 100. 100 means no emergence of the plants, or complete destruction of at least the aerial moieties, and 0 means no damage, or normal course of growth. A moderate herbicidal activity is given at values of at least 60, a good herbicidal activity is given at values of at least 70, and a very good herbicidal activity is given at values of at least 85.
# The plants used in the greenhouse experiments were of the following species: […]
# [2] = test system: Echinocloa crus-galli
# From the text: (§1) The seeds of the test plants were sown separately for each species. For the pre-emergence treatment, the active ingredients, which had been suspended or emulsified in water, were applied directly after sowing by means of finely distributing nozzles. The containers were irrigated gently to promote germination and growth and subsequently covered with transparent plastic hoods until the plants had rooted. This cover caused uniform germination of the test plants, unless this had been impaired by the active ingredients. […] The test period extended over 2 to 4 weeks. During this time, the plants were tended, and their response to the individual treatments was evaluated. Evaluation was carried out using a scale from 0 to 100. 100 means no emergence of the plants, or complete destruction of at least the aerial moieties, and 0 means no damage, or normal course of growth. A moderate herbicidal activity is given at values of at least 60, a good herbicidal activity is given at values of at least 70, and a very good herbicidal activity is given at values of at least 85. The plants used in the greenhouse experiments were of the following species: [table]
# [3] = test system: Amaranthus retroflexus
# From the text: as §1
# [4] = test system: Setaria faberi
# From the text: as §1
SMILES,herbicidal activity ([4]; 62 g/ha),herbicidal activity ([3]; 62 g/ha) [%],herbicidal activity ([2]; 62 g/ha) [%],further results
COc1c(C)ccc(C)c1Nc1nc(N)nc(C(C)F)n1 (centres unmarked) [Example 18],–,–,–,herbicidal activity ([1]; 62.5 g/ha): 100%; herbicidal activity ([1]; 250 g/ha): 100%; herbicidal activity ([2]; 62.5 g/ha): 100%; herbicidal activity ([2]; 250 g/ha): 100%; herbicidal activity ([3]; 62.5 g/ha): 100%; herbicidal activity ([3]; 250 g/ha): 100%
COc1c(Br)cc(Cl)c(C)c1Nc1nc(N)nc(C(C)(F)CBr)n1 (racemic) [Example 99],100%,100,–,herbicidal activity ([1]; 62 g/ha): 100%
C#CCOc1c(F)cc(F)c(Cl)c1Nc1nc(N)nc(C(C)(C)F)n1 [Example 28],100%,100,100,herbicidal activity ([4]; 62.5 g/ha): 100%; herbicidal activity ([2]; 62.5 g/ha): 100%; herbicidal activity ([3]; 62.5 g/ha): 100%
CC(F)c1nc(N)nc(Nc2c(Cl)cccc2OC(F)F)n1 (racemic) [Example 95],100%,100,100,herbicidal activity ([1]; 62 g/ha): 100%
CC#CCOc1c(Cl)cc(C)c(Cl)c1Nc1nc(N)nc(C(C)(C)F)n1 [Example 65],100%,–,100,herbicidal activity ([1]; 62 g/ha): 100%
COc1c(Br)cc(Cl)c(C)c1Nc1nc(N)nc(C(C)F)n1 (racemic) [Example 96],75%,–,70,–
CCOc1c(Br)cc(F)c(C)c1Nc1nc(N)nc(C(C)(C)F)n1 [Example 23],100%,100,100,herbicidal activity ([4]; 62.5 g/ha): 100%; herbicidal activity ([2]; 62.5 g/ha): 100%; herbicidal activity ([3]; 62.5 g/ha): 100%
COc1c(Br)cc(F)c(C)c1Nc1nc(N)nc(C(C)(F)CBr)n1 (centres unmarked) [Example 76],100%,100,100,–
COc1c(Br)cc(F)c(C)c1Nc1nc(N)nc(C(C)(F)F)n1 [Example 77],100%,100,100,–
COc1c(Br)cc(F)c(Cl)c1Nc1nc(N)nc(C2(F)CC2)n1 [Example 42],–,–,–,herbicidal activity ([4]; 31 g/ha): 100%; herbicidal activity ([2]; 31 g/ha): 100%; herbicidal activity ([3]; 31 g/ha): 100%
COc1c(F)ccc(Cl)c1Nc1nc(N)nc(C(C)(F)CBr)n1 (centres unmarked) [Example 86],100%,100,100,–
COc1c(Br)cc(F)c(C)c1Nc1nc(N)nc(C2(F)CCCC2)n1 [Example 78],100%,100,100,–
CC#CCOc1c(Br)cc(C)c(Cl)c1Nc1nc(N)nc(C(C)(C)F)n1 [Example 82],100%,100,100,–
COc1c(F)ccc(C)c1Nc1nc(N)nc(C(C)(C)F)n1 [Example 16],–,100,100,herbicidal activity ([1]; 62 g/ha): 100%; herbicidal activity ([1]; 250 g/ha): 100%; herbicidal activity ([2]; 250 g/ha): 100%; herbicidal activity ([3]; 250 g/ha): 100%
CCC(C)(F)c1nc(N)nc(Nc2c(C)c(F)cc(Cl)c2OC)n1 (centres unmarked) [Example 81],100%,–,100,herbicidal activity ([1]; 62 g/ha): 100%
COc1c(Cl)ccc(Cl)c1Nc1nc(N)nc(C(C)(F)F)n1 [Example 72],80% and 100%,100,100,–
CC#CCOc1c(F)ccc(Cl)c1Nc1nc(N)nc(C(C)(F)F)n1 [Example 88],100%,100,100,–
Nc1nc(Nc2c(Cl)cccc2OC(F)F)nc(C2(F)CCCC2)n1 [Example 94],100%,100,100,–
COc1c(Cl)cc(Cl)c(C)c1Nc1nc(N)nc(C(C)(C)F)n1 [Example 34],–,–,–,herbicidal activity ([1]; 62.5 g/ha): 100%; herbicidal activity ([2]; 62.5 g/ha): 100%; herbicidal activity ([3]; 62.5 g/ha): 100%
COc1c(C)ccc(C)c1Nc1nc(N)nc(C(C)(C)OC)n1 [Example 17],–,–,–,herbicidal activity ([1]; 250 g/ha): 100%; herbicidal activity ([2]; 250 g/ha): 100%; herbicidal activity ([3]; 250 g/ha): 100%

SMILES,herbicidal activity ([4]; 62 g/ha),herbicidal activity ([3]; 62 g/ha) [%],herbicidal activity ([2]; 62 g/ha) [%],further results
C#CCOc1c(Br)cc(F)c(C)c1Nc1nc(N)nc(C(C)(C)F)n1 [Example 22],100%,100,100,herbicidal activity ([4]; 62.5 g/ha): 100%; herbicidal activity ([2]; 62.5 g/ha): 85%; herbicidal activity ([3]; 62.5 g/ha): 85%
COc1c(Br)cc(F)c(C)c1Nc1nc(N)nc(C(C)(F)CCl)n1 (centres unmarked) [Example 75],100%,100,100,–
CC#CCOc1c(F)ccc(Cl)c1Nc1nc(N)nc(C(C)(C)OC)n1 [Example 90],100%,100,100,–
CCC(C)(F)c1nc(N)nc(Nc2c(C)c(F)cc(Br)c2OC)n1 (centres unmarked) [Example 79],100%,100,–,herbicidal activity ([1]; 62 g/ha): 100%
CC(C)(F)c1nc(N)nc(Nc2c(Cl)c(F)cc(F)c2OCC#CC2CC2)n1 [Example 27],100%,100,100,herbicidal activity ([4]; 31 g/ha): 100%; herbicidal activity ([3]; 31 g/ha): 100%
COc1c(Br)cc(F)c(C)c1Nc1nc(N)nc(C(C)F)n1 (centres unmarked) [Example 74],100%,100,100,–
Cc1c(Br)cc(F)c(OCc2ccccc2)c1Nc1nc(N)nc(C(C)(C)F)n1 [Example 6],–,–,–,herbicidal activity ([1]; 125 g/ha): 100%; herbicidal activity ([1]; 250 g/ha): 100%; herbicidal activity ([4]; 125 g/ha): 100%; herbicidal activity ([4]; 250 g/ha): 100%; herbicidal activity ([2]; 125 g/ha): 100%; herbicidal activity ([2]; 250 g/ha): 85%
C#CCOc1c(F)cc(C)c(Cl)c1Nc1nc(N)nc(C(C)(C)F)n1 [Example 56],100%,–,100,herbicidal activity ([1]; 62 g/ha): 100%; herbicidal activity ([1]; 62.5 g/ha): 90%; herbicidal activity ([4]; 62.5 g/ha): 100%; herbicidal activity ([2]; 62.5 g/ha): 90%
COc1c(F)ccc(Cl)c1Nc1nc(N)nc(C(C)(C)F)n1 [Example 49],–,100,100,herbicidal activity ([1]; 62 g/ha): 100%; herbicidal activity ([1]; 62.5 g/ha): 100%; herbicidal activity ([2]; 62.5 g/ha): 100%; herbicidal activity ([3]; 62.5 g/ha): 100%
COc1c(Br)cc(C)c(Cl)c1Nc1nc(N)nc(C(C)(C)F)n1 [Example 83],100%,100,100,–
COc1c(Cl)cc(F)c(C)c1Nc1nc(N)nc(C2(F)CCCC2)n1 [Example 73],100%,100,100,–
CC#CCOc1c(F)ccc(Cl)c1Nc1nc(N)nc(C(C)(F)CBr)n1 (centres unmarked) [Example 91],100%,100,100,–
COc1c(Br)cc(F)c(C)c1Nc1nc(N)nc(C(C)(C)F)n1 [Example 80],100%,100,100,–
CC#CCOc1c(F)ccc(Cl)c1Nc1nc(N)nc(C(F)C(C)C)n1 (centres unmarked) [Example 89],100%,100,100,–
COc1c(Br)cc(F)c(Cl)c1Nc1nc(N)nc(C(C)(C)F)n1 [Example 29],100%,100,–,herbicidal activity ([1]; 31 g/ha): 100%; herbicidal activity ([1]; 62 g/ha): 100%; herbicidal activity ([4]; 31 g/ha): 100%; herbicidal activity ([3]; 31 g/ha): 100%
CCC#CCOc1c(F)cc(F)c(Cl)c1Nc1nc(N)nc(C(C)(C)F)n1 [Example 26],100%,100,100,herbicidal activity ([4]; 250 g/ha): 100%; herbicidal activity ([2]; 250 g/ha): 100%; herbicidal activity ([3]; 250 g/ha): 100%
CC#CCOc1c(F)cc(F)c(Cl)c1Nc1nc(N)nc(C(C)(C)F)n1 [Example 25],100%,100,100,herbicidal activity ([4]; 250 g/ha): 100%; herbicidal activity ([2]; 250 g/ha): 100%; herbicidal activity ([3]; 250 g/ha): 100%
COc1c(F)ccc(Cl)c1Nc1nc(N)nc(C(C)(F)F)n1 [Example 85],98%,–,100,herbicidal activity ([1]; 62 g/ha): 85%
COc1c(F)ccc(Cl)c1Nc1nc(N)nc(C(C)(C)OC)n1 [Example 87],100%,100,100,–
